In patent US20250009614A1 (priority 2021, published 2025):

B1: cyanovirin-N (protein, UniProt P81180 1-101, looked up)
Cyanovirin-N: LGKFSQTCYNSAIQGSVLTSTCERTNGGYNTSSIDLNSVIENVDGSLKWQPSNFIETCRNTQLAGSSELAAECKTRAQQFVSTKINLDDHIANIDGTLKYE

Legend:
[1] = tested on: A549 cells; experiment: In-vitro cytotoxicity, MTT assay; details: 24 hours
[2] = tested on: human skin; experiment: Skin irritancy patch test; type: in vivo; details: occluded patch, neat
Experimental: The objective of the study was to determine skin irritancy potential of the nanoemulsion hand sanitizer products of the invention. The study was conducted according to internationally recognized Good Clinical Practice Guidelines. Permission to conduct the study was covered under the protocol approval for project MREC/H/48/2014: CR of the Research, Ethics and Publications Committee of the Sefako Makgatho Health Sciences University. Recruitment for the study began two weeks before the commencement of the study and approximately 25 panellists were recruited according to the study requirements, to commence the study with a test panel of 20. Potential panellists attended a series of study briefings held during the week prior to the study. Panellists were verbally briefed and given the Study Instructions, Informed Consent forms (plus coloured duplicate copies of the latter).
Panellists were given specifically timed appointments for the whole study. Unless otherwise stated in the summary, twenty adult female volunteers were used, of whom five had sensitive skins (as determined from the subject enrolment questionnaire). Signed consent forms were obtained from all subjects. Subjects with a history of clinical dermal abnormalities or who are taking or using medication which may affect test results through mediation of the inflammatory response were excluded. […]
Briefly, the study procedure was as follows; Controls and products were applied to the inner forearm of each volunteer in a randomized, blinded pattern at zero hours and repeated on the same position at 24 hours. A measured volume of control or pieces of product was placed in the respective chamber and the chamber attached to the forearm. […]
The protocol uses 1% sodium lauryl sulphate (SLS) solution as a positive control and de-ionized water as a negative control. A measured amount of 0.02 ml of sodium lauryl sulphate and de-ionized water was applied. […]
The maximum irritancy (as calculated by the mean visual score+one standard deviation of the visual score) for the products and the controls is tabulated below. […]

[3] = tested on: HIV-1 pseudovirus; details: infection of 100 TCID50; cited from earlier work

Molecule | cytotoxicity (in words) [1] | Maximum value (mean visual score + sd) ([2]; 0-3 scale, 20 panellists) | Conclusion (irritancy category) [2] | Time point (hours) of maximum value [2] | reported IC50 (as mass) [3]
C=C(C)[C@@H]1CCC(C)=C[C@H]1c1c(O)cc(CCCCC)cc1O [CBD, cannabidiol] | significant toxicity |  |  |  | 
CCCCCCCCCCCCOS(=O)(=O)[O-].[Na+] [H, Sodium Lauryl Sulphate] |  | 2.18 | Irritant (product mean visual score+SD >1.5—Product is irritant) | 72 h | 
B1 | significant toxicity |  |  |  | 22 to 340 µg
